Measured values reported in publication PMC9413491, “A Novel and Cross-Species Active Mammalian INDY (NaCT) Inhibitor Ameliorates Hepatic Steatosis in Mice with Diet-Induced Obesity” (Metabolites, 2022).

System: fatty acid synthesis in HepG2 cells
Test: Fatty acid synthesis assay ([14C] citrate incorporation) in HepG2 cells
Assay type: cell-based, human
Method: We performed the fatty acid synthesis assay in HepG2 cells. We seeded cells into black clear-bottom 96-well plates (Corning 3340 cell plate) 75,000/well and incubated at 37 °C. After 16–24 h, we washed the plates once with 100 µL PBS (+CaCl2 +MgCl2) and added 50 µL assay medium ([…] containing 11 mM glucose, 10 mM HEPES, and 1 nM insulin) per well. Then, we applied test substances in assay medium (10 µL, 5% DMSO) and incubated for 20 min at 37 °C. Thereafter, we added 10 µL assay medium containing [14C] citrate (final concentration 50 µM) and PrestoBlue reagent (1× final concentration; Thermo Fisher Scientific, Waltham, MA, USA) and incubated for 180 min (37 °C, 5% CO2). We measured cell viability (ViewLux instrument, Perkin Elmer). We removed medium by vacuum aspiration and washed cells once with 100 µL PBS (+CaCl2 +MgCl2). We lysed cells with 50 µL lysis buffer (0.1 N NaOH, 0.1 % Triton X-100) and sealed plates with Tape Pads and vortexed. For the saponification reaction, we incubated plates for 16–24 h at 70 °C in a humidified environment. Then, we removed seals and added 200 µL 0.1 N HCl to neutralise the pH. We transferred 150 µL from each into corresponding wells of a 96-well Flash plate (Perkin Elmer) and sealed with TopSeal A (Perkin Elmer). We incubated plates for 4 h at 70 °C and for at least 3 h at room temperature in the dark. We measured [14C] radioactivity (microbeta2, Perkin Elmer). For control samples, we applied 50 mM unlabelled citrate or C75 (Sigma-Aldrich, St. Louis, MO, USA, C5490).

Q: For O=C(Nc1cc(Cl)cc(C(F)(F)F)c1)OCCC(F)(F)F [ETG-5773], which “IC50 difference in fatty acid synthesis versus PF-06649298” value (ETG-5773 compared to PF-06649298, HepG2) is on record?
A: around 40 fold

Q: What about the IC50 (Homo sapiens, HepG2, [14C] citrate incorporation, read-out: IC50 fatty acid synthesis, HepG2) of the same molecule?
A: 1 µM
